Test results as given in patent US8765698B2, “Methods and products for reawakening retrocyclins” (priority 2010, dated 2014).

How the values were obtained:
[1] = tested on: premature termination codon of retrocyclin cDNA; assay: Aminoglycoside mediated read-through of termination codon, luciferase fusion construct in HOS-CD4-CCR5 cells; assay type: cell-based, human; settings: 10 μg/ml, 24 hr, luciferase normalized to renilla
Protocol: Wildtype and mutant retrocyclin cDNAs were subcloned into phCMV-luc-FSR vector to create unrescued RC-101 and rescued RC-101 C-terminal luciferase fusion constructs, and verified by sequencing. HOS-CD4-CCR5 cells were cultured in antibiotic free growth medium (D10^−) and co-transfected with 0.5 μg of unrescued or rescued (positive control) RC-101 plasmids along with 0.1 μg of phRL-CMV vector (transfection control containing renilla luciferase gene) using Effectene transfection reagent (Qiagen, Valencia, Calif.). The next day cells were treated for 24 hr with the appropriate aminoglycoside (40 μg/ml amikacin or 5 μg/ml gentamicin or 10 μg/ml tobramycin) or D10^− for control cells. Read-through was determined by measuring luciferase and renilla levels using a dual luciferase assay (Promega Corp., Madison, Wis.).

[2] = tested on: HIV-1 BaL; assay: Luciferase-based infection assay to determine anti-HIV-1 activity; assay type: cell-based; settings: for HIV-1 infection of aminoglycoside-treated TZM-bl cells: HIV-1 BaL, 24 hr, compared to untreated cells
Protocol: Treatments were then removed and the infection was quantified by measuring luciferase using Bright-Glo reagents (Promega, Madison, Wis.) in an LMax luminometer (Molecular Devices, Sunnyvale, Calif.). Cytotoxicity and metabolic activity of cells were verified by a tetrazolium-based MTT assay (R& D systems, Minneapolis, Minn.) performed on identically treated cells.
For antibody-mediated neutralization experiments, TZM-bl cells (4000 cells/well; 96 well plate) were cultured in D10^− medium and treated with vehicle (PBS) or 10 μg/ml of tobramycin for 24 hr. The next day, cells were treated with either rabbit preimmune or anti-retrocyclin serum diluted 1:10 in D10^− medium containing tobramycin or RC-100 (2.5 μg/ml). Two hours later the cells were infected with HIV-1 BaL (p24 of 5 ng/ml) at 37° C. for 24 hr. Viral infection was quantified as described above.

[3] = tested on: retrocyclin peptides; assay: Immunostaining of aminoglycoside-treated TZM-bl cells with anti-retrocyclin antibody; assay type: cell-based; settings: 10 μg/ml, 24 hr
Source text: The coverslips were then processed for immunofluorescence staining with anti-retrocyclin (rabbit anti-RC-101 antibody) or pre-immune serum as described above.

[4] = tested on: retrocyclin polypeptides; assay: Retrocyclin expression in cervicovaginal tissues, RP-HPLC, immuno-dotblot and immunostaining; assay type: cell-based, human
[5] = tested on: Cervicovaginal tissues (EpiVaginal); assay: LDH cytotoxicity assay on organotypic cervicovaginal tissue; assay type: cell-based, human; settings: 10 μg/ml, 24 hr
Protocol: (§1) Cervicovaginal tissues were treated topically with 100 μl of PBS (control; n=4) or with 10 μg/ml of tobramycin (n=8) for 24 hr. Viability was assessed on control and tobramycin-treated tissue (n=1) using MTT assay kit (MatTek Corp., Ashland, Mass.). Cytotoxicity was measured by quantifying lactate dehydrogenase (LDH) activity in the underlying medium collected 24 hr after treatment with PBS or tobramycin by using CytoTox96 non-radioactive cytotoxicity assay kit (Promega Corp., Madison, Wis.).

[6] = tested on: Cervicovaginal tissues (EpiVaginal); assay: MTT assay on organotypic cervicovaginal tissue; assay type: cell-based, human; settings: one tissue, data not shown
Protocol: as §1

NC[C@H]1O[C@H](O[C@H]2[C@H](O)[C@@H](O[C@H]3O[C@H](CO)[C@@H](O)[C@H](N)[C@H]3O)[C@H](N)C[C@@H]2N)[C@H](N)C[C@@H]1O [tobramycin]
increase in read-through [1]: 26 fold
HIV-1 infection of aminoglycoside-treated TZM-bl cells [2]: inhibited HIV-1 infection
infection, preimmune serum compared to anti-retrocyclin antibodies ([2]; TZM-bl cells, tobramycin 10 μg/ml for 24 hr, then serum, HIV-1): modest yet significant reduction in infection
anti-retrocyclin immunostaining of TZM-bl cells [3]: brightly stained cells
amount of retrocyclin polypeptides expressed in treated cervicovaginal tissues ([4]; 10 μg/ml tobramycin, estimated by densitometry of immuno-dotblot): approximately 1.6 μg/tissue
anti-retrocyclin immunohistochemical staining of cervicovaginal tissue ([4]; applied apically, 24 hr): brightly stained cells
tissue cytotoxicity (LDH activity in underlying medium) [5]: not cytotoxic
metabolic activity of tissue (MTT assay) [6]: did not affect the metabolic activity adversely

gentamicin
HIV-1 infection of aminoglycoside-treated TZM-bl cells [2]: inhibited HIV-1 infection
